Experimental data published in ChEMBL document CHEMBL5608162, “Design, synthesis and biological evaluation of 6-chloro-quinolin-2-one derivatives as novel FXIa inhibitors” (Bioorg Med Chem Lett, 2024).
Values after ≈ are worked out from the molar mass of the structure shown.

Tests used:
[1] = AUC in iv dosed rat; type: ADME, organism-based; conditions: in vivo
[2] = Tmax in iv dosed rat; type: ADME, organism-based; conditions: in vivo
[3] = Half life in iv dosed rat; type: ADME, organism-based; conditions: in vivo
[4] = Volume of distribution at steady state in iv dosed rat; type: ADME, organism-based; conditions: in vivo, read-out: Vdss
[5] = Solubility of compound at pH 8; type: physicochemical; conditions: buffer
[6] = Cmax in iv dosed rat; type: ADME, organism-based; conditions: in vivo

Description for Plasma: Anticoagulation activity in plasma (unknown origin) assessed as concentration required for twice the activated partial thromboplastin time

| SMILES | 2aPTT (Plasma) [µM] | further results |
| --- | --- | --- |
| CC[C@@H](C(=O)Nc1ccc(C(N)=O)c(F)c1)n1cc(OC)c(-c2cc(Cl)ccc2-n2cc(C(F)(F)F)nn2)cc1=O | 3.8 |  |
| CN(Cc1cc(=O)[nH]c2ccc(Cl)cc12)C(=O)[C@H](Cc1ccc(NC(=O)C2CCCC2)cc1)NC(=O)c1ccc(C(=O)O)s1 | 11.2 |  |
| CC1CC1C(=O)Nc1ccc(C[C@H](NC(=O)c2ccc(C(=O)O)s2)C(=O)N(C)Cc2cc(=O)[nH]c3ccc(Cl)cc23)cc1 (stereo not given in full) | 6.8 | AUC [1]: 0.313 µg·h/mL; Tmax [2]: 1.2 min; half-life [3]: 48.6 min; Vd [4]: 40 L/kg; solubility [5]: Soluble; Cmax [6]: 2.12 µg/mL |
| CN(Cc1cc(=O)[nH]c2ccc(Cl)cc12)C(=O)[C@H](Cc1ccc(NC(=O)C2CCCCC2)cc1)NC(=O)c1ccc(C(=O)O)s1 | 14 |  |
| CN(Cc1cc(=O)[nH]c2ccc(Cl)cc12)C(=O)[C@H](Cc1ccc(NC(=O)C2CC2)cc1)NC(=O)c1ccc(C(=O)O)s1 | 6.9 |  |
| COC(=O)Nc1ccc(C(=O)N[C@@H](Cc2ccccc2)C(=O)N(C)Cc2cc(=O)[nH]c3ccc(Cl)cc23)cc1 | 16.7 | solubility ([5]; read-out: solubility): 0.0173 mg/mL (≈ 31.6 µM) |
| CN(Cc1cc(=O)[nH]c2ccc(Cl)cc12)C(=O)[C@H](Cc1ccc(NC(=O)C2CC2(C)C)cc1)NC(=O)c1ccc(C(=O)O)s1 (stereo not given in full) | 9.8 |  |
| CN(Cc1cc(=O)[nH]c2ccc(Cl)cc12)C(=O)[C@H](Cc1ccc(NC(=O)C2CCC2)cc1)NC(=O)c1ccc(C(=O)O)s1 | 13.3 |  |
